# According to US9328122B2, “7-substituted Hanfangichin B derivative, and preparation method and use thereof” (HANGZHOU BENSHENG PHARMACEUTICAL CO., LTD., priority 2012, dated 2016):
# Experiments:
# tumor = assay: Antitumor activity compared with fangchinoline, overall statement; format: cell-based; details: tumor type not specified
# [1] = system: NB4 (acute promyelocytic leukemia) cells; assay: MTT cell growth inhibition, leukemia cells; format: cell-based; details: Homo sapiens, NB4, 72 h, MTT
# Excerpt: (§1) Leukemia cell lines: leukemia cell lines: K562adr (drug-resistant, chronic myeloid leukemia, CML), NB4 (acute promyelocytic leukemia, AML), Kasumi-1 (acute myeloid leukemia M2 type, AML-M2), Jurkat (acute lymphoblastic leukemia, ALL), all of which were donated by Cancer Research Institute of Zhejiang University, China; and H9 (acute lymphoblastic leukemia, ALL), which was purchased from China Center for Type Culture Collection.
# (§2) Reagents: The standard sample of fangchinoline (FAN) was purchased from Ci Yuan Biotechnology Co., Ltd., Shaanxi, China; and the 7-substituted fangchinoline derivatives according to the present invention.
# (§3) 6000 well-growing leukemia cells were obtained and inoculated into wells of a 96-well cell culture plate. The culture medium was a RPMI-1640 cell culture medium containing 10% fetal bovine serum. After adding the 7-substituted fangchinoline derivatives of different concentrations the next day and mixing uniformly, the plate was placed in a carbon dioxide cell incubator (5% CO2) at 37° C. and incubating for 72 hours. Then the viable cell concentration was determined by the MTT method.
# [2] = system: K562/ADR (K562adr, drug-resistant chronic myeloid leukemia) cells; assay: MTT cell growth inhibition, leukemia cells; format: cell-based; details: Homo sapiens, K562/ADR, 72 h, MTT
# Excerpt: as §1, §2, §3
# [3] = system: H9 (acute lymphoblastic leukemia) cells; assay: MTT cell growth inhibition, leukemia cells; format: cell-based, human; details: Homo sapiens, H9, 72 h, MTT
# Excerpt: as §1, §2, §3
# [4] = system: Kasumi-1 (acute myeloid leukemia M2 type) cells; assay: MTT cell growth inhibition, leukemia cells; format: cell-based, human; details: Homo sapiens, Kasumi-1, 72 h, MTT
# Excerpt: as §1, §2, §3
# [5] = system: Jurkat (acute lymphoblastic leukemia) cells; assay: MTT cell growth inhibition, leukemia cells; format: cell-based, human; details: Homo sapiens, Jurkat, 72 h, MTT
# Excerpt: as §1, §2, §3
# [6] = system: MG-63 (osteosarcoma) cells; assay: MTT cell growth inhibition, solid tumor cells; format: cell-based; details: Homo sapiens, MG-63, 72 h, MTT
# Excerpt: (§4) Hep-2 (laryngeal carcinoma), A549 (human lung cancer), CaES-17 (esophageal cancer cell), PC-3 (prostate cancer), CNE (nasopharyngeal carcinoma cell) and SK-OV-3 (ovarian cancer cell), all of which were purchased from China Center For Type Culture Collection; RKO (human colon adenocarcinoma cell), MGC-803 (human gastric cancer cell), MG-63 (osteosarcoma), and U87-MG (malignant glioma cell), all of which were purchased from Fuxiang Bio-tech Co. Ltd., Shanghai, China; PANC-1 (pancreatic cancer), Becap37 (human breast cancer cell), Hela (human cervical cancer cell) and Hep G2 (human liver cancer cell), all of which were donated by Cancer Research Institute of Zhejiang University, China.
# as §3, with “human solid tumor” for “leukemia”, “DMEM High Glucose” for “a RPMI-1640”, “serum. The plate was placed in a carbon dioxide cell incubator (5% CO2) at 37° C. and incubated for 24 hours.” for “serum.”, “added with” for “adding the”, “concentration” for “concentrations the next day”, “incubated” for “incubating”
# [7] = system: U87-MG (malignant glioma) cells; assay: MTT cell growth inhibition, solid tumor cells; format: cell-based; details: Homo sapiens, U-87 MG, U87-MG, 72 h, MTT
# Excerpt: as §4
# as §3, with “human solid tumor” for “leukemia”, “DMEM High Glucose” for “a RPMI-1640”, “serum. The plate was placed in a carbon dioxide cell incubator (5% CO2) at 37° C. and incubated for 24 hours.” for “serum.”, “added with” for “adding the”, “concentration” for “concentrations the next day”, “incubated” for “incubating”
# [8] = system: RKO (human colon adenocarcinoma) cells; assay: MTT cell growth inhibition, solid tumor cells; format: cell-based; details: Homo sapiens, RKO, 72 h, MTT
# Excerpt: as §4
# as §3, with “human solid tumor” for “leukemia”, “DMEM High Glucose” for “a RPMI-1640”, “serum. The plate was placed in a carbon dioxide cell incubator (5% CO2) at 37° C. and incubated for 24 hours.” for “serum.”, “added with” for “adding the”, “concentration” for “concentrations the next day”, “incubated” for “incubating”
# [9] = system: A549 (human lung cancer) cells; assay: MTT cell growth inhibition, solid tumor cells; format: cell-based; details: Homo sapiens, A549, 72 h, MTT
# Excerpt: as §4
# as §3, with “human solid tumor” for “leukemia”, “DMEM High Glucose” for “a RPMI-1640”, “serum. The plate was placed in a carbon dioxide cell incubator (5% CO2) at 37° C. and incubated for 24 hours.” for “serum.”, “added with” for “adding the”, “concentration” for “concentrations the next day”, “incubated” for “incubating”
# [10] = system: Hela (human cervical cancer) cells; assay: MTT cell growth inhibition, solid tumor cells; format: cell-based; details: Homo sapiens, Hela, 72 h, MTT
# Excerpt: as §4
# as §3, with “human solid tumor” for “leukemia”, “DMEM High Glucose” for “a RPMI-1640”, “serum. The plate was placed in a carbon dioxide cell incubator (5% CO2) at 37° C. and incubated for 24 hours.” for “serum.”, “added with” for “adding the”, “concentration” for “concentrations the next day”, “incubated” for “incubating”
# [11] = system: MGC-803 (human gastric cancer) cells; assay: MTT cell growth inhibition, solid tumor cells; format: cell-based; details: MGC-803, 72 h, MTT
# Excerpt: as §4
# as §3, with “human solid tumor” for “leukemia”, “DMEM High Glucose” for “a RPMI-1640”, “serum. The plate was placed in a carbon dioxide cell incubator (5% CO2) at 37° C. and incubated for 24 hours.” for “serum.”, “added with” for “adding the”, “concentration” for “concentrations the next day”, “incubated” for “incubating”
# [12] = system: Hep-2 (laryngeal carcinoma) cells; assay: MTT cell growth inhibition, solid tumor cells; format: cell-based; details: Homo sapiens, Hep-2, 72 h, MTT
# Excerpt: as §4
# as §3, with “human solid tumor” for “leukemia”, “DMEM High Glucose” for “a RPMI-1640”, “serum. The plate was placed in a carbon dioxide cell incubator (5% CO2) at 37° C. and incubated for 24 hours.” for “serum.”, “added with” for “adding the”, “concentration” for “concentrations the next day”, “incubated” for “incubating”
# [13] = system: Hep G2 (human liver cancer) cells; assay: MTT cell growth inhibition, solid tumor cells; format: cell-based; details: Homo sapiens, HepG2, Hep G2, 72 h, MTT
# Excerpt: as §4
# as §3, with “human solid tumor” for “leukemia”, “DMEM High Glucose” for “a RPMI-1640”, “serum. The plate was placed in a carbon dioxide cell incubator (5% CO2) at 37° C. and incubated for 24 hours.” for “serum.”, “added with” for “adding the”, “concentration” for “concentrations the next day”, “incubated” for “incubating”
# [14] = system: Becap-37 (human breast cancer) cells; assay: MTT cell growth inhibition, solid tumor cells; format: cell-based; details: Homo sapiens, Becap-37, 72 h, MTT
# Excerpt: as §4
# as §3, with “human solid tumor” for “leukemia”, “DMEM High Glucose” for “a RPMI-1640”, “serum. The plate was placed in a carbon dioxide cell incubator (5% CO2) at 37° C. and incubated for 24 hours.” for “serum.”, “added with” for “adding the”, “concentration” for “concentrations the next day”, “incubated” for “incubating”
# [15] = system: CNE (nasopharyngeal carcinoma) cells; assay: MTT cell growth inhibition, solid tumor cells; format: cell-based, human; details: Homo sapiens, CNE, 72 h, MTT
# Excerpt: as §4
# as §3, with “human solid tumor” for “leukemia”, “DMEM High Glucose” for “a RPMI-1640”, “serum. The plate was placed in a carbon dioxide cell incubator (5% CO2) at 37° C. and incubated for 24 hours.” for “serum.”, “added with” for “adding the”, “concentration” for “concentrations the next day”, “incubated” for “incubating”
# [16] = system: PANC-1 (pancreatic cancer) cells; assay: MTT cell growth inhibition, solid tumor cells; format: cell-based, human; details: Homo sapiens, PANC-1, 72 h, MTT
# Excerpt: as §4
# as §3, with “human solid tumor” for “leukemia”, “DMEM High Glucose” for “a RPMI-1640”, “serum. The plate was placed in a carbon dioxide cell incubator (5% CO2) at 37° C. and incubated for 24 hours.” for “serum.”, “added with” for “adding the”, “concentration” for “concentrations the next day”, “incubated” for “incubating”
# [17] = system: CaEs-17 (esophageal cancer) cells; assay: MTT cell growth inhibition, solid tumor cells; format: cell-based, human; details: Homo sapiens, CaEs17, CaEs-17, 72 h, MTT
# Excerpt: as §4
# as §3, with “human solid tumor” for “leukemia”, “DMEM High Glucose” for “a RPMI-1640”, “serum. The plate was placed in a carbon dioxide cell incubator (5% CO2) at 37° C. and incubated for 24 hours.” for “serum.”, “added with” for “adding the”, “concentration” for “concentrations the next day”, “incubated” for “incubating”
# [18] = system: SK-OV-3 (ovarian cancer) cells; assay: MTT cell growth inhibition, solid tumor cells; format: cell-based, human; details: Homo sapiens, SK-OV-3, 72 h, MTT
# Excerpt: as §4
# as §3, with “human solid tumor” for “leukemia”, “DMEM High Glucose” for “a RPMI-1640”, “serum. The plate was placed in a carbon dioxide cell incubator (5% CO2) at 37° C. and incubated for 24 hours.” for “serum.”, “added with” for “adding the”, “concentration” for “concentrations the next day”, “incubated” for “incubating”
# [19] = system: PC-3 (prostate cancer) cells; assay: MTT cell growth inhibition, solid tumor cells; format: cell-based, human; details: Homo sapiens, PC-3, 72 h, MTT
# Excerpt: as §4
# as §3, with “human solid tumor” for “leukemia”, “DMEM High Glucose” for “a RPMI-1640”, “serum. The plate was placed in a carbon dioxide cell incubator (5% CO2) at 37° C. and incubated for 24 hours.” for “serum.”, “added with” for “adding the”, “concentration” for “concentrations the next day”, “incubated” for “incubating”
smiles,measurement,setting,value
COc1ccc2cc1Oc1ccc(cc1)C[C@H]1c3cc(c(OC)cc3CCN1C)Oc1c(OC3CCCC3)c(OC)cc3c1[C@H](C2)N(C)CC3 [BS-FC-220],antitumor activity compared with that of fangchinoline,tumor,significantly superior
same,IC50,[1]; read-out: IC50,0.66 µg/mL
same,IC90,[1]; read-out: IC90,3.16 µg/mL
same,IC50,[2]; read-out: IC50,0.43 µg/mL
same,IC90,[2]; read-out: IC90,4 µg/mL
same,IC50,[3]; read-out: IC50,3.23 µg/mL
same,IC90,[3]; read-out: IC90,6.64 µg/mL
same,IC50,[4]; read-out: IC50,1.15 µg/mL
same,IC90,[4]; read-out: IC90,3.72 µg/mL
same,IC50,[5]; read-out: IC50,0.93 µg/mL
same,IC90,[5]; read-out: IC90,3.09 µg/mL
same,IC50,[6]; read-out: IC50,2.8 µg/mL
same,IC90,[6]; read-out: IC90,3.6 µg/mL
same,IC50,[7]; read-out: IC50,2.28 µg/mL
same,IC90,[7]; read-out: IC90,7.03 µg/mL
same,IC50,[8]; read-out: IC50,1.25 µg/mL
same,IC90,[8]; read-out: IC90,3.73 µg/mL
same,IC50,[9]; read-out: IC50,2.55 µg/mL
same,IC90,[9]; read-out: IC90,4.97 µg/mL
same,IC50,[10]; read-out: IC50,1.43 µg/mL
same,IC90,[10]; read-out: IC90,3.71 µg/mL
same,IC50,[11]; read-out: IC50,1.4 µg/mL
same,IC90,[11]; read-out: IC90,3.96 µg/mL
same,IC50,[12]; read-out: IC50,4.2 µg/mL
same,IC90,[12]; read-out: IC90,10.3 µg/mL
same,IC50,[13]; read-out: IC50,2.37 µg/mL
same,IC90,[13]; read-out: IC90,7.01 µg/mL
same,IC50,[14]; read-out: IC50,3.19 µg/mL
same,IC90,[14]; read-out: IC90,6.1 µg/mL
same,IC50,[15]; read-out: IC50,3.2 µg/mL
same,IC90,[15]; read-out: IC90,7.6 µg/mL
same,IC50,[16]; read-out: IC50,2.79 µg/mL
same,IC90,[16]; read-out: IC90,7.68 µg/mL
same,IC50,[17]; read-out: IC50,2.6 µg/mL
same,IC90,[17]; read-out: IC90,9.32 µg/mL
same,IC50,[18]; read-out: IC50,5.41 µg/mL
same,IC90,[18]; read-out: IC90,14.2 µg/mL
same,IC50,[19]; read-out: IC50,4.55 µg/mL
same,IC90,[19]; read-out: IC90,7.61 µg/mL
